The values that follow are results of earlier work, collected in patent US20240156825A1, “USE OF SELECTIVE VEGFR2 AND FGFR1 INHIBITORS” (Fountain Therapeutics Inc., priority 2022, published 2024).

One series has as its system any gene target. The note with it: next lowest IC50 value to any gene target, read-out: Min IC50_μM, cited from earlier work.
A further series addresses VEGFR2 (Homo sapiens, UniProt P35968). To be noted: reported IC50 to VEGFR2, read-out: VEGFR2 IC50_μM, cited from earlier work.
[1] abbreviates: Table 3, selective inhibitors of VEGFR2.

Molecules are shown by their SMILES. Read-outs that look alike come from different tables or passages of the source.

Chain of VEGFR2 (P35968 20-1356, species assumed): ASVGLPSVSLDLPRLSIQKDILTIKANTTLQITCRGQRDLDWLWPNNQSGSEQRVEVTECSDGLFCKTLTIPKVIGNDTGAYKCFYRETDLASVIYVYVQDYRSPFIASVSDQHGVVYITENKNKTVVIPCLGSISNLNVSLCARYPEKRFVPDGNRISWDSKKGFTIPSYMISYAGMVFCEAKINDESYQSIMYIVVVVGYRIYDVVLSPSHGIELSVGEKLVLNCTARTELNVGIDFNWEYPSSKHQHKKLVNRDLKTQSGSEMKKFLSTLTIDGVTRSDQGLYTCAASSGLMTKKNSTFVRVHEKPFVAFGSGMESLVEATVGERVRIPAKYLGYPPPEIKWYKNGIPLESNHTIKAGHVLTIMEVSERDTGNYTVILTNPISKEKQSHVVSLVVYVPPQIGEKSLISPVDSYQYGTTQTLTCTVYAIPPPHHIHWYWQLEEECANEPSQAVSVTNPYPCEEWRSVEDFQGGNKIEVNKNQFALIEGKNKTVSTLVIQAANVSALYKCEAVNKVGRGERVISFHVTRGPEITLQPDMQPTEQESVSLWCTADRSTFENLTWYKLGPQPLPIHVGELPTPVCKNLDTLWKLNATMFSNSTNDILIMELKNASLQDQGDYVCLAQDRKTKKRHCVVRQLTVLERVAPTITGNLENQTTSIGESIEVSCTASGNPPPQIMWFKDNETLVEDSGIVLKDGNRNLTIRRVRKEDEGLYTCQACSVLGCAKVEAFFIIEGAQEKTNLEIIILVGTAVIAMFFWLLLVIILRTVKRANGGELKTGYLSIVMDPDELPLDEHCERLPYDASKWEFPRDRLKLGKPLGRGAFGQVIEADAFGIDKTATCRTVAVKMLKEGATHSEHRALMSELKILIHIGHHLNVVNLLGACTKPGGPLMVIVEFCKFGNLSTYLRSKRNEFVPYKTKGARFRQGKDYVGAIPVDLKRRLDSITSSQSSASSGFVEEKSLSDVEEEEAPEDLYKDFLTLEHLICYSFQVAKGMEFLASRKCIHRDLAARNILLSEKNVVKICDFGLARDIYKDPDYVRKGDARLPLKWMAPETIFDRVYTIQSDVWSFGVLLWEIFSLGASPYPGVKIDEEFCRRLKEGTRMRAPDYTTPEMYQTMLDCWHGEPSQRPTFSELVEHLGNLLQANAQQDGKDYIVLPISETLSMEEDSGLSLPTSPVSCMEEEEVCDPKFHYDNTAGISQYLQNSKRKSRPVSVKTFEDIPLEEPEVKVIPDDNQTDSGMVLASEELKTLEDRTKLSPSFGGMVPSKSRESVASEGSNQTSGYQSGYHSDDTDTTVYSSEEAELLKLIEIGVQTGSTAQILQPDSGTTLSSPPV

`COc1cc2ncnc(Nc3ccc(Br)cc3)c2cc1OCCCC(=O)NO` [compound 127027714]: the results for the IC50 in the series with any gene target and on VEGFR2 were 545 nM and 98 nM, respectively.
For `CCS(=O)(=O)N1CCOC(COc2cc3ncnc(Nc4ccc(Cl)c(Cl)c4)c3cc2OC)C1` (stereo not shown) [compound 57802817], the IC50 with any gene target (Table 3) and on VEGFR2 (setting [1]) was 50 nM each time.
For `COc1cc2c(Nc3ccc(Cl)c(Cl)c3)ncnc2cc1OCC1CN(C(=O)C2CCCC2)CCO1` (stereo not shown) [compound 57802868], the IC50 in the series on any gene target (Table 3) and at VEGFR2 (setting [1]) was 50 nM in each case.
In the case of `COc1cc2c(Nc3ccc(F)c(Cl)c3F)ncnc2cc1OCC1CN(C)C(C)(C)CO1` (stereo not shown) [compound 57802650], the IC50 with any gene target and on VEGFR2 was 50 nM in each case.
For the molecule `CCN(CC)[C@H]1CO[C@H]2[C@@H]1OC[C@@H]2Oc1cc2ncnc(Nc3ccc(Br)c(Cl)c3)c2cc1OC` [compound 67163520], the IC50 in the series on any gene target (Table 3) and at VEGFR2 (setting [1]) was 50 nM throughout.
For the molecule `COc1cc2c(Nc3ccc(Cl)c(Cl)c3)ncnc2cc1OCCC1CNC(C)(C)CO1` (stereo not shown) [compound 57802637], the IC50 in the series with any gene target and at VEGFR2 was 50 nM each time.
With `COc1cc2c(Nc3ccc(Cl)c(Cl)c3)ncnc2cc1OCC1CN(C(=O)c2cccnc2Cl)CCO1` (stereo not shown) [compound 57802694], the IC50 in the series on any gene target and at VEGFR2 was 50 nM each time.
Consider `CN(c1ccc2cn(C)nc2c1)c1ccnc(Nc2cccc(S(N)(=O)=O)c2)n1` [compound 24949548], for which the IC50 in the series on any gene target was 2900 nM; on VEGFR2, 7.6 nM.
For the molecule `COc1cc2c(Nc3ccc(Cl)c(Cl)c3)ncnc2cc1OCc1csc(C2CCN(C)CC2)n1` [compound 57802861], the IC50 in the series with any gene target (Table 3) and on VEGFR2 (setting [1]) was 50 nM throughout.
Turning to `COc1cc2c(Nc3ccc(Cl)cc3F)ncnc2cc1OCCCN1CCN(C)CC1` [compound 21701597], the IC50 with any gene target is 50 nM; on VEGFR2, 20 nM.
In the case of `CN(c1ccc(F)c(NC(=O)c2cccc(OC(C)(C)C#N)c2Cl)c1)c1ccc2nc(NC(=O)C3CC3)sc2n1` [compound 25206346], the IC50 is 23 nM in the series on any gene target and 1.2 nM at VEGFR2.
Take `COc1cccc(-c2ccc3c(c2)NC(=O)/C3=C\c2[nH]c3c(c2CCC(=O)O)CCCC3)c1` [compound 5329169]: the IC50 was 100 nM in the series on any gene target and 70 nM on VEGFR2.
Regarding `COc1cc2nccc(Oc3ccc4c(C(=O)NC(C)(C)C)cccc4c3)c2cc1OC` [compound 24823091], the IC50 in the series with any gene target was 3700 nM; on VEGFR2, 1500 nM.
On to `Cc1c2ccc(N(C)c3ccnc(Nc4cccc(S(N)(=O)=O)c4)n3)cc2nn1C` [compound 24949700], for which the figures for the IC50 in the series on any gene target and at VEGFR2 were 1400 nM and 5.6 nM, respectively.
As to `COc1ccccc1/C(C)=C/c1coc2nc(N)nc(N)c12` [compound 6477203], the IC50 in the series with any gene target is 12800 nM; on VEGFR2 it was 10300 nM.
With `CCCCN1CCOC(COc2cc3ncnc(Nc4ccc(Cl)c(Cl)c4)c3cc2OC)C1` (stereo not shown) [compound 57802833], the IC50 in the series on any gene target (Table 3) and on VEGFR2 (setting [1]) was 50 nM in each case.
For `COc1cc2c(Nc3ccc(Cl)cc3F)ncnc2cc1OC[C@@H]1CCCN(C)C1` [compound 5329055], the IC50 was 80 nM in the series on any gene target and 5 nM at VEGFR2.
On to `COCCOc1cc2ncnc(Nc3cc(O)c(Cl)cc3F)c2cc1OC` [compound 5329013], for which the IC50 in the series with any gene target (Table 3) and at VEGFR2 (setting [1]) was 2 nM each time.
Take `COc1cc2c(Nc3ccc(C#N)cc3F)ncnc2cc1OC/C=C/CN1CCCC1` [compound 5329040]: the IC50 in the series on any gene target was 500 nM; on VEGFR2, 230 nM.
As for `CCCN1CCCOC(COc2cc3ncnc(Nc4ccc(Cl)c(Cl)c4)c3cc2OC)C1` (stereo not shown) [compound 57802675], the IC50 with any gene target and at VEGFR2 was 50 nM each time.
`COc1cc2c(Nc3ccc(Cl)c(Cl)c3F)ncnc2cc1OCC1CN(C)CCO1` (stereo not shown) [compound 57802591]: the IC50 with any gene target (Table 3) and at VEGFR2 (setting [1]) was 50 nM each time.
Consider `CCNC(=O)Nc1ccc(Oc2ncccc2-c2ccnc(NC)n2)c2ccccc12` [compound 46890315], for which the IC50 in the series with any gene target was 130 nM; at VEGFR2, 48 nM.
Take `CCN1CCN(Cc2ccc(NC(=O)c3ccc(C)c(NC(=O)c4cncc(-c5cccs5)c4)c3)cc2C(F)(F)F)CC1` [compound 42628503]: the IC50 in the series with any gene target (Table 3) and on VEGFR2 (setting [1]) was 500 nM throughout.
With `COc1cc2c(Nc3ccc(Cl)c(Cl)c3F)ncnc2cc1OC[C@@H]1CN(C)CC(=O)N1C` [compound 57802574], the IC50 with any gene target (Table 3) and on VEGFR2 (setting [1]) was 50 nM each time.
Take `COc1cc2c(Nc3ccc(Cl)cc3F)ncnc2cc1OCC1CCN(C)CC1` [compound 23133320]: the IC50 in the series on any gene target is 50 nM; on VEGFR2 it was 15 nM.
On to `COc1cc2c(Nc3ccc(Cl)c(Cl)c3)ncnc2cc1OCC1CN(C(N)=NC#N)CCO1` (stereo not shown) [compound 57802878], for which the IC50 with any gene target (Table 3) and at VEGFR2 (setting [1]) was 50 nM in each case.
Take `COc1cc2c(Nc3ccc(Br)cc3F)ncnc2cc1OCCCN1CCN(C)CC1` [compound 49860190]: the IC50 with any gene target was 30 nM; on VEGFR2 it was 9 nM.
As to `O=C(NC1CC1)c1cc(NCc2cnc(Nc3ccccn3)s2)c(F)cc1F` [compound 11632737], the IC50 is 200 nM with any gene target and 23 nM at VEGFR2.
`Cc1ccc(C(=O)Nc2cccc(C(F)(F)F)c2)cc1Nc1nc2ccccc2n1-c1cc(NCCC#N)ncn1` [compound 46879446]: the IC50 in the series with any gene target was 275 nM; at VEGFR2, 245 nM.
Regarding `COc1cc2nccc(Oc3ccc4c(NC(=O)c5cccc(C(F)(F)F)c5)nn(C)c4c3)c2cc1OC` [compound 11398307], the IC50 is 45 nM in the series with any gene target and 1 nM at VEGFR2.
Take `COc1cc2ncnc(Nc3ccc(F)cc3)c2cc1OCCCC(=O)NO` [compound 127026070]: the IC50 in the series with any gene target is 1340 nM; at VEGFR2 it was 376 nM.
In the case of `COc1cc2c(Nc3ccc(Cl)c(Cl)c3F)ncnc2cc1OCC1CN(C)C(C)(C)CO1` (stereo not shown) [compound 57802653], the IC50 in the series on any gene target and on VEGFR2 was 50 nM each time.
As for `COc1cc2c(Nc3ccc(Br)c(Cl)c3Cl)ncnc2cc1OC[C@@H]1CN2CCOC[C@H]2CO1` [compound 66838558], the IC50 in the series on any gene target (Table 3) and at VEGFR2 (setting [1]) was 50 nM throughout.
As for `COc1ccc(Nc2ncc3c(n2)-c2ccccc2NC(=O)C3)cc1O` [compound 16730105], the IC50 with any gene target is 640 nM; on VEGFR2, 73 nM.
For `COc1cc(C2=C(c3cn(COCC[Si](C)(C)C)c4ccccc34)CNC2=O)cc(OC)c1OC` [compound 24894886], the IC50 was 4500 nM in the series with any gene target and 3100 nM at VEGFR2.
`COc1cc2c(Nc3ccc(Cl)c(Cl)c3F)ncnc2cc1OC[C@@H]1CN2CCC[C@H]2C(=O)N1` [compound 53630923]: the IC50 in the series on any gene target (Table 3) and at VEGFR2 (setting [1]) was 50 nM each time.
For `COc1cc2c(Nc3ccc(Br)c(Cl)c3F)ncnc2cc1OC[C@@H]1CN(C)CC(=O)N1` [compound 57802892], the IC50 with any gene target (Table 3) and at VEGFR2 (setting [1]) was 50 nM each time.
As to `CN1CCC(COc2ccc3c(Nc4ccc(NC(=O)Nc5cccc(F)c5)cc4)ncnc3c2)CC1` [compound 56835147], the IC50 was 9.6 nM with any gene target and 5.5 nM at VEGFR2.
For `COc1cc2c(Nc3ccc(Cl)cc3F)ncnc2cc1OCCN(C)c1ccncc1` [compound 5329026], the IC50 was 100 nM in the series with any gene target and 6 nM at VEGFR2.
With `COc1cc2c(Nc3ccc(Cl)c(Cl)c3)ncnc2cc1OCc1nc2c(s1)CNCC2` [compound 53630967], the IC50 in the series on any gene target (Table 3) and at VEGFR2 (setting [1]) was 50 nM each time.
Turning to `COc1cc2c(Nc3ccc(Cl)c(Cl)c3)ncnc2cc1OCc1csc(N2CCN(C)CC2)n1` [compound 57802910], the IC50 in the series on any gene target (Table 3) and on VEGFR2 (setting [1]) was 50 nM throughout.
On to `COc1cc2c(Nc3ccc(Cl)c(Cl)c3)ncnc2cc1O[C@@H]1C[C@H]2OC[C@H](OC)[C@H]2O1` [compound 134140126], for which the IC50 in the series with any gene target (Table 3) and on VEGFR2 (setting [1]) was 50 nM in each case.
Take `COc1cc(C2=C(c3cn(COCc4ccccc4)c4ccccc34)CNC2=O)cc(OC)c1OC` [compound 24894993]: the figures for the IC50 in the series with any gene target and at VEGFR2 were 1700 nM and 1600 nM, respectively.
On to `COc1cc2c(Nc3ccc(Br)c(Cl)c3)ncnc2cc1OC1CCN(C)C1` (stereo not shown) [compound 57802786], for which the IC50 in the series with any gene target and on VEGFR2 was 50 nM throughout.
As for `COc1cc2c(Nc3ccc(Br)cc3F)ncnc2cc1OC[C@H]1CCCN(C)C1` [compound 5329057], the IC50 in the series with any gene target is 40 nM; at VEGFR2, 10 nM.
For `COc1cc2c(Nc3cc(Cl)c(Br)cc3F)ncnc2cc1OC[C@H]1CN2CCOC[C@H]2CO1` [compound 10030541], the IC50 with any gene target (Table 3) and at VEGFR2 (setting [1]) was 50 nM in each case.
With `COC(=O)c1ccc2c(C(=Nc3ccc(N(C)C(=O)Cn4ccnc4)cc3)c3ccccc3)c(O)[nH]c2c1` [compound 135399795], the IC50 with any gene target is 7 nM; on VEGFR2, 6 nM.
Regarding `COc1cc2nccc(Oc3ccc4c(C(=O)NC5CCCC5)cccc4c3)c2cc1OC` [compound 24822599], the figures for the IC50 in the series on any gene target and on VEGFR2 were 620 nM and 9 nM, respectively.
Turning to `OCCCCNc1cncc(-c2cncc(Nc3cccc(Cl)c3)n2)c1` [compound 5330388], the IC50 is 2360 nM in the series on any gene target and 63 nM at VEGFR2.
As to `COc1cc2c(Nc3ccc(C)c(Br)c3)ncnc2cc1OCC1CN(C)CCO1` (stereo not shown) [compound 57802550], the IC50 with any gene target (Table 3) and on VEGFR2 (setting [1]) was 50 nM each time.
With `COc1cc2c(Nc3ccc(F)c(Cl)c3F)ncnc2cc1OC[C@@H]1CN2CCC[C@H]2CO1` [compound 58013819], the IC50 in the series with any gene target (Table 3) and at VEGFR2 (setting [1]) was 50 nM in each case.
Turning to `CCN1CCCC(c2nc(COc3cc4ncnc(Nc5ccc(Cl)c(Cl)c5)c4cc3OC)no2)C1` (stereo not shown) [compound 58013772], the IC50 in the series with any gene target (Table 3) and on VEGFR2 (setting [1]) was 50 nM throughout.
Turning to `CN1CC(=Cc2ccccn2)C(=O)C(=Cc2ccccn2)C1` [compound 2132479], the IC50 is 1900 nM in the series on any gene target and 1300 nM on VEGFR2.
